Assay: Chelation test with La^3+ (HPLC chromatograms prior and subsequent to mixing)
Assay type: physicochemical
Details: prior vs subsequent to mixing with La^3+

In the case of `CC(C)CCC(c1cccc(C(=O)O)n1)N1CCOCCOCCN(Cc2cccc(C(=O)O)n2)CCOCCOCC1` (centres unmarked) [TOPA-[C7]-isopentyl, 6-((16-(1-(6-carboxypyridin-2-yl)-4-methylpentyl)-1,4,10,13-tetraoxa-7,16-diazacyclooctadecan-7-yl)methyl)picolinic acid], the “chelation of La^3+ indicated by shift in HPLC retention time” value is reported as “rapid chelation of La^3+ and Ac-225”.
With `O=C(O)c1cccc(CN2CCOCCOCCN(C(c3ccccc3)c3cccc(C(=O)O)n3)CCOCCOCC2)n1` (centres unmarked) [TOPA-[C7]-phenyl, 6-((16-((6-carboxypyridin-2-yl)(phenyl)methyl)-1,4,10,13-tetraoxa-7,16-diazacyclooctadecan-7-yl)methyl)picolinic acid] the “chelation of La^3+ indicated by shift in HPLC retention time” value was “rapid chelation of La^3+”.

Source: patent US20250082793A1, “MACROCYCLIC COMPOUNDS AND METHODS OF MAKING THE SAME” (JANSSEN BIOTECH, INC., priority 2021, published 2025)
